# Reference: patent US10647713B2 (Nimbus Lakshmi, Inc., priority 2016, dated 2020)
# Target: human TYK2 (JH2domain-pseudokinase) (Homo sapiens (Human), UniProt P29597)
# Assay: TYK2 JH2 Domain Binding Assay (KINOMEscan, DiscoveRx)
# Details: 11-point dilution, duplicate
# Procedure, shortened: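 Kd from duplicate 11-point 3-fold dilutions starting at 30,000 nM, fitted by Hill equation with slope fixed at −1. Compounds (final 0.9% DMSO) displace DNA-tagged HEK293-expressed TYK2 JH2 fusion (<0.1 nM) from ligand-coated beads over 1 h at room temperature; eluted kinase read by qPCR.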
# Chain of human TYK2 (JH2domain-pseudokinase) (P29597 556-888): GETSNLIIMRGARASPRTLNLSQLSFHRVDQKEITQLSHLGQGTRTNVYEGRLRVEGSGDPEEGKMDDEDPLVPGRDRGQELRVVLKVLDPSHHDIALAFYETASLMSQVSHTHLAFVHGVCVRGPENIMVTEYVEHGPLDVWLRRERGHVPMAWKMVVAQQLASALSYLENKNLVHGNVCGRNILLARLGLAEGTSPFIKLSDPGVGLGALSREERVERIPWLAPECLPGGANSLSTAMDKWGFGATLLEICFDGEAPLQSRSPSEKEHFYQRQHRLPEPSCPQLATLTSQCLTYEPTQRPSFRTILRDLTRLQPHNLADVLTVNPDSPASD
row,SMILES,Kd
1,"COc1cc(-c2cncn2C)ccc1Nc1cc(Nc2cnc(C)c(C)n2)nc2[nH]c(C(F)F)nc12 [I-144, 2-(difluoromethyl)-N5-(5,6-dimethylpyrazin-2-yl)-N7-(2-methoxy-4-(1-methyl-1H-imidazol-5-yl)phenyl)-3H-imidazo[4,5-b]pyridine-5,7-diamine]",> 10 nM
2,"Cc1nc2c(Nc3ccc(-c4oc(C)cc4C)cc3S(C)(=O)=O)cc(NC(=O)C3CC3)nc2[nH]1 [I-561, N-(7-((4-(3,5-dimethylfuran-2-yl)-2-(methylsulfonyl)phenyl)amino)-2-methyl-3H-imidazo[4,5-b]pyridin-5-yl)cyclopropanecarboxamide]",1 to 10 nM
3,"CS(=O)(=O)c1cc([C@H]2CCCCO2)ccc1Nc1cc(NC(=O)[C@H]2CC2(F)F)nc2[nH]c(C(F)F)nc12 [I-326, N-(2-(difluoromethyl)-7-((2-(methylsulfonyl)-4-((R)-tetrahydro-2H-pyran-2-yl)phenyl)amino)-3H-imidazo[4,5-b]pyridin-5-yl)-2,2-difluorocyclopropane-1-carboxamide]",1 to 10 nM
4,"CS(=O)(=O)c1cc(C2CCOCC2)ccc1Nc1cc(NC(=O)C2CC2(F)F)nc2[nH]c(C(F)F)nc12 (centres unmarked) [I-337, N-(2-(difluoromethyl)-7-((2-(methylsulfonyl)-4-(tetrahydro-2H-pyran-4-yl)phenyl)amino)-3H-imidazo[4,5-b]pyridin-5-yl)-2,2-difluorocyclopropane-1-carboxamide]",1 to 10 nM
5,COc1c(Nc2cc(Nc3ccc4c(n3)CCOC4)nc3[nH]c(C(F)F)nc23)cccc1-c1ncnn1C [I-645],1 to 10 nM
6,"Cc1nc2c(Nc3ccc(C4COCCO4)cc3S(C)(=O)=O)cc(NC(=O)C3CC3)nc2[nH]1 (centres unmarked) [I-604, N-(7-((4-(1,4-dioxan-2-yl)-2-(methylsulfonyl)phenyl)amino)-2-methyl-3H-imidazo[4,5-b]pyridin-5-yl)cyclopropanecarboxamide]",0.1 to 0.5 nM
7,"Cc1ncc(Nc2cc(Nc3ccccc3N(C)S(C)(=O)=O)c3nc(C(F)F)[nH]c3n2)nc1C [I-59, N-(2-((2-(difluoromethyl)-5-((5,6-dimethylpyrazin-2-yl)amino)-3H-imidazo[4,5-b]pyridin-7-yl)amino)phenyl)-N-methylmethanesulfonamide]",0.1 to 0.5 nM
8,"COCc1ccc(Nc2cc(NC(=O)C3CC3)nc3[nH]c(C(F)F)nc23)c(N(C)S(C)(=O)=O)c1 [I-96, N-(2-(difluoromethyl)-7-((4-(methoxymethyl)-2-(N-methylmethylsulfonamido)phenyl)amino)-3H-imidazo[4,5-b]pyridin-5-yl)cyclopropanecarboxamide]",0.1 to 0.5 nM
9,"COc1cc(-c2cncn2C)ccc1Nc1cc(NC(=O)C2CC2)nc2[nH]c(C(F)F)nc12 [I-142, N-(2-(difluoromethyl)-7-((2-methoxy-4-(1-methyl-1H-imidazol-5-yl)phenyl)amino)-3H-imidazo[4,5-b]pyridin-5-yl)cyclopropanecarboxamide]",1 to 10 nM
10,"CS(=O)(=O)N(c1ccccc1Nc1cc(Nc2cccc(C#N)n2)nc2[nH]c(C(F)F)nc12)C(F)F [I-229, N-(2-((5-((6-cyanopyridin-2-yl)amino)-2-(difluoromethyl)-3H-imidazo[4,5-b]pyridin-7-yl)amino)phenyl)-N-(difluoromethyl)methanesulfonamide]",1 to 10 nM
11,"COc1cc(-c2nc(C)c(C)s2)ccc1Nc1cc(NC(=O)C2CC2)nc2[nH]c(C(F)F)nc12 [I-582, N-(2-(difluoromethyl)-7-((4-(4,5-dimethylthiazol-2-yl)-2-methoxyphenyl)amino)-3H-imidazo[4,5-b]pyridin-5-yl)cyclopropanecarboxamide]",> 10 nM
12,"Cn1cnc(-c2ccc(Nc3cc(NC(=O)[C@H]4CC4(F)F)nc4[nH]c(C(F)F)nc34)c(S(C)(=O)=O)c2)c1 [I-244, (R)—N-(2-(difluoromethyl)-7-((4-(1-methyl-1H-imidazol-4-yl)-2-(methylsulfonyl)phenyl)amino)-3H-imidazo[4,5-b]pyridin-5-yl)-2,2-difluorocyclopropane-1-carboxamide]",0.5 to 1 nM
13,"CS(=O)(=O)c1cc(C2CCCCO2)ccc1Nc1cc(Nc2cccc(C(F)(F)F)n2)nc2[nH]c(C(F)F)nc12 (centres unmarked) [I-365, 2-(difluoromethyl)-N7-(2-(methylsulfonyl)-4-(tetrahydro-2H-pyran-2-yl)phenyl)-N5-(6-(trifluoromethyl)pyridin-2-yl)-3H-imidazo[4,5-b]pyridine-5,7-diamine]",0.5 to 1 nM
14,"COc1cc(-c2cncn2C)ccc1Nc1cc(Nc2cccc(C#N)n2)nc2[nH]c(C(F)F)nc12 [I-143, 6-((2-(difluoromethyl)-7-((2-methoxy-4-(1-methyl-1H-imidazol-5-yl)phenyl)amino)-3H-imidazo[4,5-b]pyridin-5-yl)amino)picolinonitril]",1 to 10 nM
15,"Cc1ccc(-c2ccc(Nc3cc(NC(=O)C4CC4)nc4[nH]c(C(F)F)nc34)c(S(C)(=O)=O)c2)o1 [I-418, N-(2-(difluoromethyl)-7-((4-(5-methylfuran-2-yl)-2-(methylsulfonyl)phenyl)amino)-3H-imidazo[4,5-b]pyridin-5-yl)cyclopropanecarboxamide]",1 to 10 nM

# Results, then the molecule that gave them:
row,Kd,SMILES
1,0.5 to 1 nM,"Cc1cc(Nc2cc(Nc3ccc(-c4nc(C)c(C)s4)cc3S(C)(=O)=O)c3nc(C(F)F)[nH]c3n2)nc(C)n1 [I-469, 2-(difluoromethyl)-N5-(2,6-dimethylpyrimidin-4-yl)-N7-(4-(4,5-dimethylthiazol-2-yl)-2-(methylsulfonyl)phenyl)-3H-imidazo[4,5-b]pyridine-5,7-diamine]"
2,< 0.1 nM,"Cc1ccc(Nc2cc(Nc3ccccc3N(C)S(C)(=O)=O)c3nc(C(F)F)[nH]c3n2)nc1C#N [I-60, N-(2-((5-((6-cyano-5-methylpyridin-2-yl)amino)-2-(difluoromethyl)-3H-imidazo[4,5-b]pyridin-7-yl)amino)phenyl)-N-methylmethanesulfonamides]"
3,0.5 to 1 nM,"CS(=O)(=O)c1cc([C@@H]2CCOC2)ccc1Nc1cc(NC(=O)C2CC2)nc2[nH]c(C(F)F)nc12 [I-452, (S)—N-(2-(difluoromethyl)-7-((2-(methylsulfonyl)-4-(tetrahydrofuran-3-yl)phenyl)amino)-3H-imidazo[4,5-b]pyridin-5-yl)cyclopropanecarboxamide]"
4,0.5 to 1 nM,"COc1cc(-c2nc(C)nn2C)ccc1Nc1cc(NC(=O)C2CC2)nc2[nH]c(C)nc12 [I-163, N-(7-((4-(1,3-dimethyl-1H-1,2,4-triazol-5-yl)-2-methoxyphenyl)amino)-2-methyl-3H-imidazo[4,5-b]pyridin-5-yl)cyclopropanecarboxamide]"
5,0.1 to 0.5 nM,"[2H]C([2H])([2H])S(=O)(=O)N(C)c1ccccc1Nc1cc(Nc2cc(C)nc(C)n2)nc2[nH]c(C)nc12 [I-456, N-(2-((5-((2,6-dimethylpyrimidin-4-yl)amino)-2-methyl-3H-imidazo[4,5-b]pyridin-7-yl)amino)phenyl)-N-methylmethanesulfonamide-d3]"
6,0.5 to 1 nM,COc1c(Nc2cc(Nc3cccc(C#N)n3)nc3[nH]c(C(F)F)nc23)cccc1-c1ncnn1C [I-538]
7,0.5 to 1 nM,"Cc1nc2c(Nc3ccc(C4CCCOC4)cc3S(C)(=O)=O)cc(NC(=O)C3CC3)nc2[nH]1 (stereo in doubt) [I-254, (R)—N-(2-methyl-7-((2-(methylsulfonyl)-4-(tetrahydro-2H-pyran-3-yl)phenyl)amino)-3H-imidazo[4,5-b]pyridin-5-yl)cyclopropanecarboxamide]"
8,0.1 to 0.5 nM,CS(=O)(=O)c1cc(-c2ccn(C3CCOCC3)n2)ccc1Nc1cc(NC(=O)C2CC2)nc2[nH]c(C(F)F)nc12 [I-522]
9,< 0.1 nM,"Cc1nc2c(Nc3ccc(C4CCCCO4)cc3S(C)(=O)=O)cc(Nc3cnc(C)c(C)n3)nc2[nH]1 (centres unmarked) [I-398, N5-(5,6-dimethylpyrazin-2-yl)-2-methyl-N7-(2-(methylsulfonyl)-4-(tetrahydro-2H-pyran-2-yl)phenyl)-3H-imidazo[4,5-b]pyridine-5,7-diamine]"
10,0.1 to 0.5 nM,"Cn1cncc1-c1ccc(Nc2cc(NC(=O)C3CC3(F)F)nc3[nH]c(C(F)F)nc23)c(S(C)(=O)=O)c1 (centres unmarked) [I-379, N-(2-(difluoromethyl)-7-((4-(1-methyl-1H-imidazol-5-yl)-2-(methylsulfonyl)phenyl)amino)-3H-imidazo[4,5-b]pyridin-5-yl)-2,2-difluorocyclopropane-1-carboxamide]"
11,0.1 to 0.5 nM,COCc1ccc(Nc2cc(Nc3ccccc3S(C)(=O)=O)c3nc(C(F)F)[nH]c3n2)nn1 [I-520]
12,0.5 to 1 nM,"COc1cc(C(=O)N2CCC2)ccc1Nc1cc(NC(=O)C2CC2)nc2[nH]c(C(F)F)nc12 [I-16, N-(7-((4-(azetidine-1-carbonyl)-2-methoxyphenyl)amino)-2-(difluoromethyl)-3H-imidazo[4,5-b]pyridin-5-yl)cyclopropanecarboxamide]"
13,< 0.1 nM,Cc1cc(Nc2cc(Nc3ccc([C@H]4CCCCO4)cc3S(C)(=O)=O)c3nc(C)[nH]c3n2)nc(C)n1 [I-529]
14,0.1 to 0.5 nM,"CN(c1cc(C(F)F)ccc1Nc1cc(Nc2cccc(C#N)n2)nc2[nH]c(C(F)F)nc12)S(C)(=O)=O [I-178, N-(2-((5-((6-cyanopyridin-2-yl)amino)-2-(difluoromethyl)-3H-imidazo[4,5-b]pyridin-7-yl)amino)-5-(difluoromethyl)phenyl)-N-methylmethanesulfonamide]"
15,0.1 to 0.5 nM,Cc1c(-c2ccc(Nc3cc(Nc4ccc(C(C)C)c(C#N)n4)nc4[nH]c(C(F)F)nc34)c(S(C)(=O)=O)c2)cnn1C [I-533]
16,0.1 to 0.5 nM,"Cc1nc2c(Nc3ccccc3S(C)(=O)=O)cc(Nc3cc4c(nn3)CCC4)nc2[nH]1 [I-597, N5-(6,7-dihydro-5H-cyclopenta[c]pyridazin-3-yl)-2-methyl-N7-(2-(methylsulfonyl)phenyl)-3H-imidazo[4,5-b]pyridine-5,7-diamine]"
17,0.1 to 0.5 nM,"Cc1nc2c(Nc3ccc([C@@H]4CCCO4)cc3S(C)(=O)=O)cc(NC(=O)C3CC3(F)F)nc2[nH]1 (stereo partly drawn) [I-348, 2,2-difluoro-N-(2-methyl-7-((2-(methylsulfonyl)-4-((S)-tetrahydrofuran-2-yl)phenyl)amino)-3H-imidazo[4,5-b]pyridin-5-yl)cyclopropane-1-carboxamide]"
